Bridge positions count the residues as written; N and C are the ends. Ends that are not written are not given here. * marks the point of attachment. FITC = O=C1OC2(c3ccc(O)cc3Oc3cc(O)ccc32)c2ccc(NC(=S)*)cc21
How the values were obtained:
gC1qR/p32 = molecular target: T1, gC1qR/p32 (Homo sapiens, UniProt Q07021); test: Pull-down assay with biotinylated peptides from tumor cell extracts; type: binding; settings: extracts of cultured tumor cells (MDA-MB-435); anti-gC1qR/p32 immunoblot
T1 construct: the specific band represents the mature form of a protein known as gC1qR/p32; endogenous in cells; host or cells: MDA-MB-435 cultured cells; MDA-MB-435 tumor xenografts
T1 sequence (Q07021 74-282): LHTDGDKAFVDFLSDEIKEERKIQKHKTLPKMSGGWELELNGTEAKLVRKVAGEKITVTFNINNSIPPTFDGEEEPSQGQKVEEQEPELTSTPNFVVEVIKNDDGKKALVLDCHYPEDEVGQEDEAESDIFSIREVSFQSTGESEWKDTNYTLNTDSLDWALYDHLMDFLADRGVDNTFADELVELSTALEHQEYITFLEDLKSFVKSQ
Description: Pull down assays were performed with biotinylated Lyp-1 peptide (SEQ ID NO:1, CGNKRTRGC) from protein extracts derived from MDA-MB-435 cultured cells or MDA-MB-435 tumor xenografts. A tumor homing peptide, CREKA (SEQ ID NO:3), and a peptide CRV which resembles Lyp-1 in its amino acid composition and cyclic structure (SEQ ID NO:4, CRVRTRSGC), were used as negative controls. The Lyp-1 bound proteins were visualized using silver staining and immunoblotting. […] The arrow indicates a specific 33 kD band, which was identified as gC1qR/p32 by mass spectrometry. […] The antibody recognizes a band of 33 kD in the total proteins lysate and in the Lyp-1 pull down. Anti gC1qR/p32 reactive bands are not detected in the pull downs from both control peptides. […] The monoclonal antibody against gC1qR/p32 recognized a 75 kD and a 33 kD band only in the Lyp-1 peptide pull down.
To identify the receptor for the LyP-1 peptide, biotin-labeled LyP-1 and control peptides were incubated with extracts of MDA-MB-435 cells, a cell line that binds and internalizes LyP-1 (Laakkonen et al., 2004). LyP-1 bound a specific band in the 30 kDa range that was not seen in the controls (FIG. 3A, left panel), which were the pentapeptide CREKA (SEQ ID NO: 3) (Simberg et al., 2007) and the nonapeptide CRVRTRSGC (SEQ ID NO: 4), which resembles LyP-1 in its amino acid composition and cyclic structure. […] LyP-1 affinity isolation also yielded gC1qR/p32 from cultured BT549 breast carcinoma cells and from extracts of MDA-MB-435 xenograft tumors.
Streptavidin agarose beads (Sigma-Aldrich) were resuspended in 2 volumes of phosphate buffer saline (PBS) and conjugated to 3 μg/10 μl beads of biotynilated peptides for 2 h on ice. After incubation, beads were washed three times with PBS/50 mM n-octyl-β-D glucopyranoside (Calbiochem; San Diego, Calif.) to remove free peptides. […] Bands that appeared in the LyP-1 but not control peptide pull down were cut out, digested with trypsin, and the resulting peptides were analyzed by matrix-assisted laser desorption ionization-time of flight (MALDI-TOF) mass spectrometry. […]

mitochondrial membranes = settings: 10 μM; cited from earlier work
BT549 = settings: cited from earlier work
C8161 melanoma cells = settings: cited from earlier work
HL-60 leukemia cells = settings: cited from earlier work
MDA-MB-435 = settings: cited from earlier work
tumors = settings: cited from earlier work
[1] = molecular target: T2, purified gC1qR/p32 protein (Homo sapiens, UniProt Q07021); test: In vitro phage binding to purified gC1qR/p32 coated on microtiter wells; settings: 5 μg/ml coated protein, 16 h at 37° C., plaque assay
T2 sequence (Q07021 74-282): T1 sequence (Q07021 74-282)
Description: Purified gC1qR/p32 or BSA, as a control, were coated onto microtiter wells (5 μg/ml) and targeted for binding with 10^8 pfu of insertless phage, Lyp-1 phage, or control phage carrying another tumor homing peptide (CREKA, SEQ ID NO:3). After 16 hours of incubation at 37° C., bound phages were eluted and quantified by plaque assay. The results are show in FIG. 2(a). Results are expressed as fold of Lyp-1 and CREKA (SEQ ID NO:3) phages recovered over insertless phage and are representative of five independent experiments.
Microtiter wells (Costar, Corning, N.Y.) were coated overnight at 4° C. with 5 μg/ml of either purified gC1qR/p32 or BSA (Sigma-Aldrich) in 100 μl/well of carbonate buffer (15 mM sodium carbonate, 35 mM sodium bicarbonate). Wells were washed three times with TBS and blocked with Pierce Superblock buffer according to the manufactures instructions. 10^8 pfu of LyP-1 and control phages were added to the wells in 100 μl/well of TBS/0.05% tween-20 and incubated for 16 h at 37° C. After 6 washes in TBS/0.05% tween-20, bound phages were eluted with 200 μl of Tris-HCl 1M pH 7.5/0.5% SDS for 30 min and subsequently quantified by plaque assay. […] Cells were washed 5 times with PBS/1% BSA and bound phages were quantified by plaque assay.

MDA-MB-435 cells = test: FACS analysis of FITC-peptide binding to MDA-MB-435 cells; type: cell-based; settings: 10 μM, 1 hour at 4° C.; compared with Lyp-1
Description: MDA-MB-435 cells were transiently transfected with gC1qR/p32-specific or control siRNAs. […] The amount of fluorescence in living cells was analyzed by FACS. Cells incubated in the absence of peptide served as FITC negative control. Compared to control siRNA transfected cells, down-regulation of gC1qR/p32 expression (in the presence of gC1qR/p32 siRNA) caused a shift in the peak of Lyp-1 fluorescence but not control peptide fluorescence.
Cultured cells were detached with cell enzyme-free dissociation buffer (Gibco/Invitrogen) and collected in PBS containing 1% BSA (PBSB). Single cells suspensions from tumors were obtained as indicated above. For FACS staining, 2.5×10^5 cells were resuspended in 100 μl of PBSB and incubated with polyclonal anti-full-length gC1qR/p32 or rabbit IgG (20 μg/ml) in PBSB for 30 min at 4° C. The cells were washed in PBSB and stained with goat anti rabbit Alexa 488 (2.5 μg/ml) for 30 min at 4° C. For FACS analysis of bound FITC-peptides, cultured cells were detached as above and incubated with 10 μM of FITC-peptides in 10% FCS/DMEM for 1 hour at 4° C. After washes with PBSB, the cells were resuspended in PBS containing 2 μg/ml of propidium iodide (PI, Molecular Probes/Invitrogen) to distinguish between live and dead cells, and 10,000 cells per sample were analyzed using a BD Biosciences FACSort.

MDA-MB-435 tumors = test: Tumor localization of intravenously injected FITC-LyP-1 peptide; type: in vivo, mice; settings: circulation 1 hour; p32 immunohistochemical staining
Excerpt: Tumor localization of gC1qR/p32 and Lyp-1 peptide were visualized. gC1qR/p32, lymphatic or blood vessels, podoplanin and Meca32/CD31 were stained with fluorescently-labeled antibodies in MDA-MB-435 tumor xenografts. Polyclonal anti-gC1qR/p32 antibody recognizes cell clusters that lack blood vessels but contain lymphatics, or cells lining vessel-like structures positive for Podoplanin but not CD31 or Meca32. Fluorescein-conjugated Lyp-1 peptide was i.v. injected into mice bearing MDA-MB-435 tumors and allowed to circulate for 1 hour before removal of the tumor for gC1qR/p32 immunohistochemical analysis. Lyp-1 peptide localizes in gC1qR/p32-positive patches within the tumor.

**Q.** Which “gC1qR/p32 bound/pulled down by biotinylated peptide” value (gC1qR/p32) does the source give for “CRVRTRSGC (disulfide 1-9 (inferred)) [control nonapeptide resembling Lyp-1 in amino acid composition and cyclic structure]” here?
**A.** The value was “not detected”.

**Q.** For D(KLAKLAK)2, which mitochondrial swelling (mitochondrial membranes) is on record?
**A.** Its mitochondrial swelling is “marked mitochondrial swelling”.

**Q.** Which results are given for “CGNKRTRGC (disulfide 1-9 (inferred)) [LyP-1, tumor homing cyclic nonapeptide]”?
**A.** LyP-1 binding (BT549): strong; gC1qR/p32 bound/pulled down by biotinylated peptide (gC1qR/p32): specifically bound; LyP-1 binding (C8161 melanoma cells): not to significantly bind; LyP-1 binding (HL-60 leukemia cells): not to significantly bind; LyP-1 binding (MDA-MB-435): strong; TUNEL-positive lesions in tumors (tumors; in vivo peptide treatment): induced TUNEL-positive lesions; tumor growth (tumors; systemic administration): inhibits tumor growth

**Q.** With CNRRTKAGC (displayed on phage) [LyP-2] as the substance, how does the “phage binding to purified gC1qR/p32 relative to insertless control phage” value [1] read?
**A.** The value was “did not significantly bind”.

**Q.** Which “binding of FITC conjugated peptide to cells” value (MDA-MB-435 cells) does the source give for “ARALPSQRSR [control peptide with same overall charge as LyP-1]” here?
**A.** The value was “less binding ability”.

**Q.** With “CREKA [tumor homing pentapeptide used as negative control, as peptide and on phage]” as the substance, how does the “gC1qR/p32 bound/pulled down by biotinylated peptide” value (gC1qR/p32) read?
**A.** Its value is “not detected”.

**Q.** And the “phage binding to purified gC1qR/p32 relative to insertless control phage” value [1]?
**A.** The value was “essentially no interaction”.

**Q.** For “FITC-LyP-1: fluorescein-conjugated LyP-1 peptide ({FITC}-CGNKRTRGC; disulfide 1-9 (inferred))”, which “tumor localization of intravenously injected peptide” value (MDA-MB-435 tumors) is on record?
**A.** The value was “accumulated in tumor areas with high expression levels of gC1qR/p32”.

— US8178104B2, “Methods and compositions for targeting gC1qR/p32” (Sanford-Burnham Medical Research Institute, priority 2006, dated 2012)
